In US20220146526A1, “METHOD FOR EVALUATING SAMPLE, ANALYSIS METHOD, METHOD FOR DETECTING DEGRADED SAMPLE, MARKER FOR DETECTING DEGRADED BLOOD PLASMA SAMPLE, AND MARKER FOR DETECTING DEGRADED SERUM SAMPLE” (SHIMADZU CORPORATION, priority 2019, published 2022):
Where a name gives a salt, the structure may show the parent alone.

Legend:
Type in all cases: physicochemical, human
[1] = GC/MS of blood plasma sample: number of times of freezing and thawing (Table C); conditions: for Increase or decrease: detection intensity; for Rate of increase or decrease: detection intensity relative to 1 at 2 times
Experimental: (§1) At room temperature, 5 mL of blood from a healthy subject was taken into a blood-collecting vessel containing EDTA, and the blood-collecting vessel was inverted for mixing, then cooled, and allowed to stand at 4° C. Here, in order to investigate how the detection intensity of molecules contained in the sample was affected in a case where the time to cooling was set to 5 minutes or more as compared to that in a case where the time to cooling was set to 1 minute or less, preparations were performed under both the former condition and the latter condition. After standing, the blood sample was subjected to centrifugation under a condition of 4° C., 3000 rpm, and 15 minutes. […] After centrifugation, the blood-collecting vessel was left to stand at room temperature for 30 minutes, and the blood plasma was isolated during this 30 minutes. The obtained blood plasma sample was frozen and stored. Here, in order to investigate how the detection intensity of molecules contained in the sample was affected in cases where freezing and thawing was performed 4 times, 6 times, and 10 times after freezing as compared to that in a case where freezing and thawing was performed 2 times after freezing, freezing and thawing was performed under the respective conditions of 2, 4, 6, and 10 times.
(§2) Frozen blood plasma samples and serum samples were subjected to GC/MS or LC/MS. In GC/MS, the blood plasma samples and serum samples were subjected to methoxymation and trimethylsilylation and then introduced to GC-MS.
(§3) GC/MS was conducted using GCMS·TQ8040 (Shimadzu Corporation) that was a GC·MS equipped with AOC·20i (Shimadzu Corporation) as an autosampler.
(§4) Column: BPX5 (inner diameter of 0.25 mm, length of 30 m, and film thickness of 0.25 μm) (SGE)
(§5) Column temperature: maintained at 60° C. for 2 minutes, then raised at 15° C./min, and maintained at 330° C. for 3 minutes.
(§6) Inlet temperature: 250° C.
(§7) Carrier gas control mode: constant linear velocity of 39.0 cm/sec
(§8) Sample introduction method: split (split ratio of 30:1) Injection volume: 1 μL
(§9) Ionization method: electron ionization
(§10) Ionization current: 60 μA
(§11) Interface temperature: 280° C.
(§12) Ion source temperature: 200° C.
(§13) Mode: multiple reaction monitoring (MRM)
The rate of increase or decrease in Table C is the value of detection intensity relative to 1 that is the detection intensity in a case where the number of times of freezing and thawing is set to 2 times.

[2] = GC/MS of serum sample: number of times of freezing and thawing (Table I); parameters: key to Rate of increase or decrease / Rate of increase or decrease (first value, increase): detection intensity relative to 2 freeze-thaw cycles = 1; conditions: for Rate of increase or decrease: detection intensity relative to 1 at 2 times
Procedure, shortened: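 Serum was isolated after centrifugation at room temperature (3500 rpm, 5 min), frozen, and put through 2, 4, 6 or 10 freeze–thaw cycles. Samples were methoxymated and trimethylsilylated, then run by electron-ionization GC/MS in MRM mode on a BPX5 column (60 to 330 °C). Detection intensity is given relative to the 2-cycle sample, set as 1.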

[3] = GC/MS of serum sample: time from blood collection to centrifugation (Table G); conditions: blood collection to centrifugation; for Increase or decrease: detection intensity; for Rate of increase or decrease: detection intensity relative to 1 at 15 minutes
Procedure, shortened: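 Blood was held for varying times before centrifugation (room temperature, 3500 rpm, 5 min); serum was frozen, then methoxymated and trimethylsilylated for GC/MS with electron ionization in MRM mode. Values are detection intensities relative to the 15-minute collection-to-centrifugation condition, set as 1.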

[4] = GC/MS of blood plasma sample: time from blood collection to centrifugation (Table A); conditions: for Rate of increase or decrease: detection intensity relative to 1 at 15 minutes; for Rate of increase or decrease / Increase or decrease: blood collection to centrifugation; for Increase or decrease: detection intensity
Experimental: as §1, §2, §3, §4, §5, §6, §7, §8, §9, §10, §11, §12, §13
The rate of increase or decrease in Table A is the value of detection intensity relative to 1 that is the detection intensity in a case where the time from blood collection to centrifugation is set to 15 minutes.

[5] = GC/MS of serum sample: time from centrifugation to isolation (Table H); parameters: key to Rate of increase or decrease / Rate of increase or decrease (first value, increase): detection intensity relative to 1 at 30 min centrifugation-to-isolation; conditions: for Rate of increase or decrease: detection intensity relative to 1 at 30 minutes; for Increase or decrease: detection intensity
Procedure, shortened: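 Blood was centrifuged at room temperature, 3500 rpm, 5 min, and the vessel left at room temperature for 30 min, 1 h or 6 h before serum isolation. Serum was methoxymated, trimethylsilylated and analysed by GC/MS with electron ionization in MRM mode; intensities expressed relative to the 30-min condition (=1).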

[6] = freezing and thawing 6 times vs 2 times

What does the source list for CCCCCCCCCCCCCCCCCCO [Octadecanol]?
Increase or decrease [1, 6]: Different from individual; Rate of increase or decrease (second value, decrease) ([1]; different from individual to individual, individuals with decrease, relative to 1 at 2 times, freezing and thawing 6 times): 0.68; Rate of increase or decrease (first value, increase) ([1]; different from individual to individual, individuals with increase, relative to 1 at 2 times, freezing and thawing 6 times): 1.63; Rate of increase or decrease ([2]; serum, GC/MS, freezing and thawing 6 times): 1.64; Increase or decrease ([2]; detection intensity, serum, GC/MS, freezing and thawing 6 times vs 2 times): Increase; Increase or decrease ([3]; after 4 hours vs 15 minutes): Increase; Rate of increase or decrease ([4]; after 4 hours): 1.62; Increase or decrease ([4]; after 4 hours vs 15 minutes): Increase; Rate of increase or decrease ([5]; after 1 hour): 2.08; Increase or decrease ([5]; after 1 hour vs 30 minutes): Increase

Which “Rate of increase or decrease” value ([1]; freezing and thawing 4 times) does the source give for O=C(O)[C@H](O)[C@H](O)[C@H](O)CO [Ribonic acid] here?
The value was 1.62.

What about the Increase or decrease ([1]; freezing and thawing 4 times vs 2 times) of the same molecule?
The Increase or decrease was “Increase”.

What about the “Rate of increase or decrease” value ([3]; after 12 hours) of the same molecule?
Its value is 1.46.

And the Increase or decrease ([3]; after 12 hours vs 15 minutes)?
The Increase or decrease was “Increase”.

What about the “Rate of increase or decrease” value ([4]; after 4 hours) of the same molecule?
The value was 0.17.

And the Increase or decrease ([4]; after 4 hours vs 15 minutes)?
Its Increase or decrease is “Decrease”.

Which “Rate of increase or decrease” value ([1]; freezing and thawing 6 times) does the source give for O=S(=O)(O)Oc1c[nH]c2ccccc12 [Indoxyl sulfate] here?
Its value is 0.68.

And the Increase or decrease [1, 6]?
The Increase or decrease was “Decrease”.

And the “Rate of increase or decrease” value ([4]; after 12 hours)?
The value was 1.50.

And the Increase or decrease ([4]; after 12 hours vs 15 minutes)?
Its Increase or decrease is “Increase”.

Which “Rate of increase or decrease” value ([1]; freezing and thawing 6 times) does the source give for CCCCCCCCCCCCCCCCCC(=O)OCC(O)CO (stereo not drawn) [Monostearin] here?
Its value is 0.67.

And the Increase or decrease [1, 6]?
Its Increase or decrease is “Decrease”.

And the “Rate of increase or decrease” value ([2]; 10 times of freezing and thawing)?
The value was 0.60.

And the “Number of times when compound is affected” value ([2]; serum sample, GC/MS, detection intensity changed by 30% or more vs 2 times of freezing and thawing)?
Its value is 10 times.

What about the Increase or decrease ([2]; serum sample, GC/MS, detection intensity vs 2 times of freezing and thawing) of the same molecule?
Its Increase or decrease is “Decrease”.

What about the “Rate of increase or decrease” value ([3]; after 4 hours) of the same molecule?
Its value is 1.98.

And the Increase or decrease ([3]; after 4 hours vs 15 minutes)?
Its Increase or decrease is “Increase”.

What about the “Rate of increase or decrease” value ([4]; after 12 hours) of the same molecule?
Its value is 1.35.

And the Increase or decrease ([4]; after 12 hours vs 15 minutes)?
Its Increase or decrease is “Increase”.

And the “Rate of increase or decrease” value ([5]; after 6 hours)?
Its value is 2.08.

And the Increase or decrease ([5]; after 6 hours vs 30 minutes)?
Its Increase or decrease is “Increase”.

Which results are given for O=C[C@H](O)[C@@H](O)[C@H](O)CO [Xylose]?
Rate of increase or decrease ([1]; freezing and thawing 6 times): 0.68; Increase or decrease [1, 6]: Decrease; Rate of increase or decrease ([3]; after 4 hours): 1.47; Rate of increase or decrease ([3]; after 8 hours): 0.68; Increase or decrease ([3]; after 4 hours vs 15 minutes): Increase; Increase or decrease ([3]; after 8 hours vs 15 minutes): Decrease; Increase or decrease ([4]; after 4 hours vs 15 minutes): Different from individual; Rate of increase or decrease (second value, decrease) ([4]; different from individual to individual, individuals with decrease, relative to 1 at 15 minutes, collection to centrifugation, after 4 hours): 0.69; Rate of increase or decrease (first value, increase) ([4]; different from individual to individual, individuals with increase, relative to 1 at 15 minutes, collection to centrifugation, after 4 hours): 1.68

For CCCCCCCCCCCCCCCCO [1-Hexadecanol (cetanol), 1-Hexadecanol], which “Rate of increase or decrease” value ([1]; freezing and thawing 10 times) is on record?
Its value is 1.88.

What about the Increase or decrease ([1]; freezing and thawing 10 times vs 2 times) of the same molecule?
The Increase or decrease was “Increase”.

And the Increase or decrease ([2]; detection intensity, serum, GC/MS, freezing and thawing 10 times vs 2 times)?
Its Increase or decrease is “Different from individual”.

And the “Rate of increase or decrease (second value, decrease)” value ([2]; different from individual to individual, individuals with decrease, relative to 1 at 2 times, serum, GC/MS, freezing and thawing 10 times)?
Its value is 0.70.

And the “Rate of increase or decrease (first value, increase)” value ([2]; different from individual to individual, individuals with increase, relative to 1 at 2 times, serum, GC/MS, freezing and thawing 10 times)?
The value was 1.34.

And the “Rate of increase or decrease” value ([3]; after 12 hours)?
The value was 1.38.

What about the Increase or decrease ([3]; after 12 hours vs 15 minutes) of the same molecule?
Its Increase or decrease is “Increase”.

What about the “Rate of increase or decrease” value ([4]; after 4 hours) of the same molecule?
The value was 0.60.

And the Increase or decrease ([4]; after 4 hours vs 15 minutes)?
Its Increase or decrease is “Decrease”.

What about the “Rate of increase or decrease” value ([5]; after 1 hour) of the same molecule?
The value was 1.36.

What about the Increase or decrease ([5]; after 1 hour vs 30 minutes) of the same molecule?
The Increase or decrease was “Increase”.
